Assay results published in patent US10561638B2, “Methods for treating dependence” (Biotie Therapies, Inc., priority 2007, dated 2020).
Entries after “also recorded” stand apart in the source; their conditions may differ.

Tests used:
[1] = target: protein kinase (non-selective); test: Enzyme selectivity assay; type: biochemical
[2] = test system: blood pressure responses to norepinephrine, isoproterenol and acetylcholine; test: Responses to autonomic agents in anesthetized, instrumented dogs; type: in vivo, beagle dogs; settings: single intraduodenal dose of 60 mg/kg
Experimental: Beagle dogs were administered single intraduodenal doses of 0 (vehicle) or 60 mg/kg of nepicastat through an intraduodenal cannula. The vehicle-control group consisted of 1 male and 1 female, and the nepicastat-treatment group consisted of 2 males and 2 females. Each animal was surgically instrumented while anesthetized with isoflurane gas. Before dosing with test formulation, the average blood pressure responses to intravenous doses of autonomic agents, norepinephrine (3 μg/kg), isoproterenol (0.3 μg/kg), and acetylcholine (10 μg/kg), were evaluated. A single bolus dose of test formulation was then administered to each animal and the blood pressure responses to the autonomic agents were evaluated approximately 1, 2, and 3 hours after dosing. At the completion of the experiment, each dog was euthanatized and removed from the study. […]
Systolic, diastolic, and mean aortic blood pressures were evaluated just before administration (baseline) and at the time of peak response to each agent (maximum change from baseline). Systolic, diastolic, and mean aortic blood pressures, and blood pH, PCO2, and PO2 were evaluated before dosing and approximately 50, 110, and 170 minutes after dosing with test formulation. […]

[3] = Pilot observation studies in rats, acute and repeated oral administration
Experimental: Similarly, in a separate study, physostigmine (1, 3, 10 or 30 mg/kg p.o.) or vehicle were administered acutely to groups of 8 rats.
In pilot studies of repeated administration, nepicastat (100 mg/kg p.o.) or vehicle was administered twice daily (06:00 and 18:00 h) for 10 days (once on day 11) to groups of 8 rats. The weights of the animals were monitored throughout the study and, on day 5, the animals were observed ‘blind’ by an independent observer in order to assess any overt behavioural/physiological effects following repeated administration. In a separate study, groups of 8 rats received vehicle or physostigmine (0.3, 1, 3 or 10 mg/kg p.o.) using the same dosing schedule. The weights of the animals were monitored throughout the study.

[4] = test system: MPTP-lesioned squirrel monkey; test: MPTP-lesioned squirrel monkey Parkinsonian model; type: in vivo, squirrel monkeys
Experimental: Twenty four squirrel monkeys, fourteen females and ten males were used in a Parkinsonian model. The twenty-four animals were randomly assigned to one of four treatment groups, with 6 animals per group. The groups consisted of the following: Group A (6 animals) received placebo (water) treatment; Group B (5 animals) received drug nepicastat at 1 mg/kg/day (0.5 mg/kg twice daily); Group C (6 animals) received 4 mg/kg/day (2 mg/kg twice daily); and Group D (6 animals) received 10 mg/kg/day (5 mg/kg twice daily). In Group B, one animal died acutely following MPTP-lesioning, and was not replaced.
Prior to lesioning, animals were subjected to quantitative assessment of spontaneous motor activity using an infrared activity monitor (IRAM) cage. All recording sessions were 60 minutes in length and were carried out for 10 sessions over a period of 2 weeks. The behavior of animals was also assessed by 1 to 3 clinical raters using a parkinsonian clinical rating scale (CRS) once per day (12 noon to 1 pm) for 3 to 5 consecutive days. […] Both the activity monitoring (IRAM) and clinical rating assessments established the mean base-line activity of each animal.
Animals were lesioned by the administration of MPTP at a concentration of 2.0 mg/kg (free-base) via subcutaneous injection to achieve a parkinsonian state. A post-MPTP lesioning behavioral assessment was carried out 2 to 4 weeks after the last MPTP-lesioning. Locomotor activity was monitored by IRAM in 60-minute sessions for 3 to 5 days. Clinical behavior (CAS) was assessed by one to three individuals rating over a period of 3 to 5 days.
Animals were tested for response to L-Dopa and the efficacy of drug nepicastat. Testing was carried out 4 to 12 weeks after the last MPTP dose. L-Dopa was administered at a concentration of either 2.5, 5, or 7.5 mg/kg by oral gavage twice daily (at 10 am and 2 pm) for 7 consecutive days. Behavior was determined by IRAM and CRS. Clinical rating was carried out 60 to 90 minutes following the 10 am morning dose on the last 4 days of treatment. Raters (one to three individuals) were blinded to the different treatment groups. IRAM assessment were preformed for 90 minutes immediately following drug administration at 2 pm on the last 2 to 5 days of drug treatment. There was a minimum 2 day washout period between each treatment dose.
Nepicastat or water (as placebo) was administered for 12 days following a minimum 2 day washout after L-Dopa dosing. Drug was administered twice daily at 10 am and 2 pm by oral gavage. Behavior was rated by IRAM and CRS. The CRS was conducted in the morning, 60 to 90 minutes after the 10 am dose of nepicastat on the last 5 days of drug treatment. Raters (one to three individuals) were blinded to the different treatment groups. IRAM assessments were preformed for 90 minutes immediately following drug administration at 2 pm on the last 5 days of drug treatment.
Eight parkinsonian features were rated in each animal and the total score was derived from the sum of these eight features. For each animal, a single clinical rating score was obtained for each drug dose by averaging the clinical rating scores of all raters (one to three) conducted over the consecutive multiple dosing (with the same dose) days. This average CRS was used for statistical analysis. A lower score was considered a less parkinsonian behavioral state.
Statistical analysis consisted of: (1) comparisons between the average CRS of placebo to nepicastat at 1, 4, and 10 mg/kg/day using the Kruskal-Wallis (non-parametric analysis of variance). This comparison was repeated using the average CRS for each experimental drug concentration corrected by the final post-MPTP ratings for each animal. The corrected clinical scores are clinical scores of experimental drug at each concentration as a ratio of post-MPTP clinical scores. […]

[5] = test system: SHRs; test: 30-day radio-telemetry study in SHRs; settings: for blood pressure: hydrochloride
[6] = test system: SHRs; test: 21 day daily treatment of SHRs, tail cuff and direct blood pressure; type: in vivo, spontaneously hypertensive rats
[7] = test system: normal dogs; test: Cardiovascular effects of i.v. dosing in dogs; type: in vivo; settings: anesthetized dogs, 1-10 mg/kg i.v., up to five hours

Cl.NCc1c[nH]c(=S)n1[C@H]1CCc2c(F)cc(F)cc2C1 [nepicastat, (S)-5-Aminomethyl-1-(5,7-difluoro-1,2,3,4-tetrahydronaphth-2-yl)-2,3-dihydro-2-thioxo-1H-imidazole hydrochloride]
IC50 [1]: > 10 µM | predose vs postdose blood pressure responses to autonomic agents [2]: No treatment-related differences | overt effects of repeated administration ([3]; nepicastat 100 mg/kg p.o. twice daily): no overt effects | irritability when handled ([3]; nepicastat 100 mg/kg p.o. twice daily, 11 days): more irritable than controls | mean loss in body weight ([3]; nepicastat 100 mg/kg p.o. twice daily, after 11 days): 28 g | overt behavioural/physiological changes ([3]; nepicastat 30 or 100 mg/kg p.o. acutely): did not induce any overt behavioural/physiological changes | activity monitoring (IRAM) vs placebo ([4]; 1 mg/kg/day): slower than placebo treatment | parkinsonian clinical rating vs placebo ([4]; 1, 4, 10 mg/kg/day, 12 days, hydrochloride): no detectable differences; also recorded: no significant effect in parkinsonian symptoms compared to placebo | activity monitoring (IRAM) vs placebo ([4]; 4 and 10 mg/kg/day): no difference | parkinsonian clinical rating vs post-MPTP (pre-treatment) state ([4]; nepicastat 4 and 10 mg/kg/day, hydrochloride): significant improvement over the post-MPTP (pre-treatment) state; also recorded: significant effect in parkinsonian symptoms compared to post-MPTP lesioning | peak decrease in mean blood pressure ([5]; 30 mg/kg/d, day 3): −20 mmHg | peak antihypertensive response on day 1 ([5]; 100 mg/kg, 21 hr after dosing): −29 mmHg | blood pressure ([5]; 3 and 10 mg/kg/d for 30 days): no significant effects; also recorded: did not significantly affect blood pressure | persistence of blood pressure effect after a single dose ([5]; 30 and 100 mg/kg/d): 24 h | blood pressure ([5]; 30 and 100 mg/kg/d for 30 days): significantly lowered blood pressure; also recorded: significantly reduced blood pressure | antihypertensive effect of mono-administration ([5]; enalapril 1 mg/kg or nepicastat 30 mg/kg (Series III)): only a small antihypertensive effect | relation of deaths to treatment ([5]; four deaths in four series): appeared unrelated to the treatment of nepicastat | cardiac hypertrophy / left ventricular mass ([5]; nepicastat 3-100 mg/kg): did not affect the cardiac hypertrophy | blood pressure measured directly via arterial cannulae, restrained ([6]; 10 mg/kg p.o.): significant antihypertensive effect | heart rate and systolic blood pressure by tail cuff ([6]; 1 and 10 mg/kg p.o., 21 days): did not alter heart rate, or systolic blood pressure | cardiovascular effects [7]: no cardiovascular effects
